Several values for one entry are separate records, joined by “and”; a condition that tells them apart may be missing. Equal values may be shown once. ± gives the expanded uncertainty stated by the source.
Test: activity coefficient (dimensionless); of the first substance listed, at infinite dilution; xn = mol fraction of the nth substance listed
Details: Liquid, x1 = 0
[1] = 333.15 K, Rayleigh distillation method
[2] = 343.15 K, Rayleigh distillation method
[3] = 353.15 K, Rayleigh distillation method

activity coefficient (313.15 K, headspace analysis)	activity coefficient (372.65 K, circulation still method)	activity coefficient (372.82 K, circulation still method)	Structure (SMILES)	activity coefficient (298.15 K, headspace analysis)	activity coefficient [1]	activity coefficient [2]	activity coefficient [3]	activity coefficient (372.47 K, ciculation still method)	activity coefficient (372.85 K, ciculation still method)
			Nc1ccccc1 [aniline] + O	145 ± 15	130 ± 13	121 and 119	111 ± 11	92.7 ± 9.3	
29.1 ± 2.9	64.5 ± 6.5	53.5 and 64.6	NC1CCCCC1 [cyclohexylamine] + O	19 ± 2	36.7 ± 3.7	44.8 ± 4.5	51.2 ± 5.1		
			O=[N+]([O-])c1ccccc1 [nitrobenzene] + O		2450 and 2320	2150 ± 220	1640 and 1660		1320 ± 130

— the NIST ThermoML archive (doi:10.1021/je060136y)
